Laboratory results as given in ChEMBL document CHEMBL5705887, “Distinct concentration-dependent effects of the polo-like kinase 1-specific inhibitor GSK461364A, including differential effect on apoptosis” (Cancer Res, 2009).
The source made the active and inactive calls. The rule behind the calls is not given here.

Experiments:
[1] = system: T47D; assay: Antiproliferative activity against human T47D cells assessed as growth inhibition incubated for 72 hrs by celltiter-glo assay; format: functional
[2] = system: NCI-H727; assay: Antiproliferative activity against human NCI-H727 cells assessed as growth inhibition incubated for 72 hrs by celltiter-glo assay; format: functional
[3] = system: PANC-1; assay: Antiproliferative activity against human PANC-1 cells assessed as of viable cell signal at minimum maximum cell growth incubated for 72 hrs by celltiter-glo assay relative to control; format: functional
[4] = system: HCT-15; assay: Antiproliferative activity against human HCT-15 cells assessed as of viable cell signal at minimum maximum cell growth incubated for 72 hrs by celltiter-glo assay relative to control; format: functional
[5] = system: NCI-H1299; assay: Antiproliferative activity against human NCI-H1299 cells assessed as growth inhibition incubated for 72 hrs by celltiter-glo assay; format: functional
[6] = system: RKO; assay: Antiproliferative activity against human RKO cells assessed as of viable cell signal at minimum maximum cell growth incubated for 72 hrs by celltiter-glo assay relative to control; format: functional
[7] = system: MX1; assay: Antiproliferative activity against human MX1 cells assessed as of viable cell signal at minimum maximum cell growth incubated for 72 hrs by celltiter-glo assay relative to control; format: functional
[8] = system: A-427; assay: Antiproliferative activity against human A-427 cells assessed as of viable cell signal at minimum maximum cell growth incubated for 72 hrs by celltiter-glo assay relative to control; format: functional
[9] = system: MDA-MB-453; assay: Antiproliferative activity against human MDA-MB-453 cells assessed as of viable cell signal at minimum maximum cell growth incubated for 72 hrs by celltiter-glo assay relative to control; format: functional
[10] = system: SK-MEL-2; assay: Antiproliferative activity against human SK-MEL-2 cells assessed as growth inhibition incubated for 72 hrs by celltiter-glo assay; format: functional
[11] = system: A-431; assay: Antiproliferative activity against human A-431 cells assessed as growth inhibition incubated for 72 hrs by celltiter-glo assay; format: functional
[12] = system: LoVo; assay: Antiproliferative activity against human LoVo cells assessed as viable cell signal at maximum growth inhibition incubated for 72 hrs by celltiter-glo assay relative to control; format: functional
[13] = molecular target: Serine/threonine-protein kinase WNK3 (Homo sapiens) (UniProt Q9BYP7); assay: Inhibition of N-terminal his6-tagged recombinant human WNK3 (1 to 434 residues) expressed in baculovirus Sf21 insect cells at 10 uM relative to control
Chain of Serine/threonine-protein kinase WNK3 (Homo sapiens) (Q9BYP7 whole entry, the tested form may be a part): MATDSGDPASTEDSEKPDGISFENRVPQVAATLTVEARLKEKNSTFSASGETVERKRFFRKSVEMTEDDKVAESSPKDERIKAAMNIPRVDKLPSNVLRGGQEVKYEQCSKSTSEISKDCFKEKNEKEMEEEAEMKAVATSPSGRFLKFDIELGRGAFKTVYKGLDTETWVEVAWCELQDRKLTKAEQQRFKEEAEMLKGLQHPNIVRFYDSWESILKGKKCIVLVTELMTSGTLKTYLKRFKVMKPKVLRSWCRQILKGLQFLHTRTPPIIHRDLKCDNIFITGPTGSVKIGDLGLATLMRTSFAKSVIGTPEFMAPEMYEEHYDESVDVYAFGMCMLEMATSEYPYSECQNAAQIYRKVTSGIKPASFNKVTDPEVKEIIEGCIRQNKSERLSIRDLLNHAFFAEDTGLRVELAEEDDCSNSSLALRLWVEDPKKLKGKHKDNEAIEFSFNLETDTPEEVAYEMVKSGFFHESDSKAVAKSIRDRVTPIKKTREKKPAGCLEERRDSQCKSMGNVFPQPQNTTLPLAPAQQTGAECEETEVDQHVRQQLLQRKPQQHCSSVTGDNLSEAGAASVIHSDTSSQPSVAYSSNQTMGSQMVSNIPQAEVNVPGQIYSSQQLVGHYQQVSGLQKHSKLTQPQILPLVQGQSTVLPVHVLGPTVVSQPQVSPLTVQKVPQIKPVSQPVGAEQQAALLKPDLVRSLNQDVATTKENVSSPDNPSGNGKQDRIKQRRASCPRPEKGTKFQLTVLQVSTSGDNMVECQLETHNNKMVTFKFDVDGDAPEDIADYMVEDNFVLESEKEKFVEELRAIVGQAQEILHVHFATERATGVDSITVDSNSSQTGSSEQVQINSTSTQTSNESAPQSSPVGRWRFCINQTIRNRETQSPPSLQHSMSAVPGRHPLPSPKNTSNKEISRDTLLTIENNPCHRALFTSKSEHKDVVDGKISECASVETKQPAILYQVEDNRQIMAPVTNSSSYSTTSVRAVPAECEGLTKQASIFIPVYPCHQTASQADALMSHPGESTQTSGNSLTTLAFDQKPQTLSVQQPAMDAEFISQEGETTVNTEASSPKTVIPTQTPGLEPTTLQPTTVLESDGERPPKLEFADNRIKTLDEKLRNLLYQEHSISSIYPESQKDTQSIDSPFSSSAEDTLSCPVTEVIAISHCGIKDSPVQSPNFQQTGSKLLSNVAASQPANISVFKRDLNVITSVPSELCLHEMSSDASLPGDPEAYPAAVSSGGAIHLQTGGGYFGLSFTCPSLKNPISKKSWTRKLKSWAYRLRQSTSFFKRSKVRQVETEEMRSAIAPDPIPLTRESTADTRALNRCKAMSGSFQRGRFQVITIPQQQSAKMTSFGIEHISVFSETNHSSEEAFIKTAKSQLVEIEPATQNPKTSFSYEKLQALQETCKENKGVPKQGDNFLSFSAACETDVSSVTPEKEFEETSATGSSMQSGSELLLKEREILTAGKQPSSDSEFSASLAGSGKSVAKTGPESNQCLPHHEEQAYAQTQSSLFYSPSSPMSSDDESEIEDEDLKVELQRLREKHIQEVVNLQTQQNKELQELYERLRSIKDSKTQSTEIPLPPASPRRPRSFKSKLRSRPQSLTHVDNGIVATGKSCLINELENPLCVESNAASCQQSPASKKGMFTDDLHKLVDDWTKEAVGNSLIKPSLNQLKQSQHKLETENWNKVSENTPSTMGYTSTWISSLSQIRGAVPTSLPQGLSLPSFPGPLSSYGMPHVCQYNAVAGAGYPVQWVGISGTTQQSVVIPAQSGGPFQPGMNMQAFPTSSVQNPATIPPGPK

[14] = system: ZR-75-1; assay: Growth inhibition of human ZR-75-1 cells assessed as viable cells at 250 nmol/L measured immediately by celltiter-glo assay; format: functional; conditions: read-out: Activity
[15] = system: COLO 205; assay: Antitumor activity against human COLO 205 cells xenografted in ip dosed Nude mouse assessed as increase in pHH3 level measured at 24 to 48 hrs by […]; format: functional, organism-based; conditions: dose 50-100 mg/kg, time 24-48 hrs
[16] = system: SK-MEL-5; assay: Antiproliferative activity against human SK-MEL-5 cells assessed as growth inhibition incubated for 72 hrs by celltiter-glo assay; format: functional
[17] = system: HeLa; assay: Antiproliferative activity against human HeLa cells assessed as viable cell signal at maximum growth inhibition incubated for 72 hrs by celltiter-glo assay relative to control; format: functional
[18] = system: Calu-1; assay: Antiproliferative activity against human Calu-1 cells assessed as growth inhibition incubated for 72 hrs by celltiter-glo assay; format: functional
[19] = system: SK-MEL-5; assay: Antiproliferative activity against human SK-MEL-5 cells assessed as of viable cell signal at minimum maximum cell growth incubated for 72 hrs by celltiter-glo assay relative to control; format: functional
[20] = system: T47D; assay: Antiproliferative activity against human T47D cells assessed as viable cell signal at maximum growth inhibition incubated for 72 hrs by celltiter-glo assay relative to control; format: functional
[21] = system: SK-MEL-28; assay: Antiproliferative activity against human SK-MEL-28 cells assessed as growth inhibition incubated for 72 hrs by celltiter-glo assay; format: functional
[22] = system: ZR-75-1; assay: Antiproliferative activity against human ZR-75-1 cells assessed as of viable cell signal at minimum maximum cell growth incubated for 72 hrs by celltiter-glo assay relative to control; format: functional
[23] = molecular target: Serine/threonine-protein kinase pim-1 (Homo sapiens) (UniProt P11309); assay: Inhibition of full length N-terminal GST-tagged recombinant human PIM1 expressed in Escherichia coli at 10 uM relative to control
Chain of Serine/threonine-protein kinase pim-1 (Homo sapiens) (P11309 whole entry, looked up): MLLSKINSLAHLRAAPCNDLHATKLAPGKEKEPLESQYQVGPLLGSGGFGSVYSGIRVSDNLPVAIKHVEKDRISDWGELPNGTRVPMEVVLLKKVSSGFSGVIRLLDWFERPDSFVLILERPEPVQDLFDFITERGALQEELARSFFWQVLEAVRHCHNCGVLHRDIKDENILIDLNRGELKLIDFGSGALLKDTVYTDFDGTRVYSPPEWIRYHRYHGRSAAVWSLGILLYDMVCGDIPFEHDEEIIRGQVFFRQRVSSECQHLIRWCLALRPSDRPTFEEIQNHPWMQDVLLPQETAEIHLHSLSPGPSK

[24] = system: BT-549; assay: Antiproliferative activity against human BT-549 cells assessed as viable cell signal at maximum growth inhibition incubated for 72 hrs by celltiter-glo assay relative to control; format: functional
[25] = system: HT-1080; assay: Antiproliferative activity against human HT-1080 cells assessed as viable cell signal at maximum growth inhibition incubated for 72 hrs by celltiter-glo assay relative to control; format: functional
[26] = system: COLO 205; assay: Antitumor activity against human COLO 205 cells xenografted in Nude mouse assessed as disorganized condense chromatin at 50 to 100 mg/kg, ip measured at 24 to 48 hrs by H and E staining based analysis; format: functional, organism-based; conditions: dose 50-100 mg/kg, time 24-48 hrs
[27] = system: NCI-H727; assay: Antiproliferative activity against human NCI-H727 cells assessed as of viable cell signal at minimum maximum cell growth incubated for 72 hrs by celltiter-glo assay relative to control; format: functional
[28] = system: NCI-H358; assay: Antiproliferative activity against human NCI-H358 cells assessed as growth inhibition incubated for 72 hrs by celltiter-glo assay; format: functional
[29] = system: PANC-1; assay: Antiproliferative activity against human PANC-1 cells assessed as growth inhibition incubated for 72 hrs by celltiter-glo assay; format: functional
[30] = molecular target: Serine/threonine-protein kinase PLK3 (Homo sapiens) (UniProt Q9H4B4); assay: Inhibition of N-terminal his6-tagged recombinant human PLK3 (19 to 301 residues) expressed in baculovirus Sf21 insect cells at 10 uM relative to control
Chain of Serine/threonine-protein kinase PLK3 (Homo sapiens) (Q9H4B4 whole entry, looked up, the tested form may be a part): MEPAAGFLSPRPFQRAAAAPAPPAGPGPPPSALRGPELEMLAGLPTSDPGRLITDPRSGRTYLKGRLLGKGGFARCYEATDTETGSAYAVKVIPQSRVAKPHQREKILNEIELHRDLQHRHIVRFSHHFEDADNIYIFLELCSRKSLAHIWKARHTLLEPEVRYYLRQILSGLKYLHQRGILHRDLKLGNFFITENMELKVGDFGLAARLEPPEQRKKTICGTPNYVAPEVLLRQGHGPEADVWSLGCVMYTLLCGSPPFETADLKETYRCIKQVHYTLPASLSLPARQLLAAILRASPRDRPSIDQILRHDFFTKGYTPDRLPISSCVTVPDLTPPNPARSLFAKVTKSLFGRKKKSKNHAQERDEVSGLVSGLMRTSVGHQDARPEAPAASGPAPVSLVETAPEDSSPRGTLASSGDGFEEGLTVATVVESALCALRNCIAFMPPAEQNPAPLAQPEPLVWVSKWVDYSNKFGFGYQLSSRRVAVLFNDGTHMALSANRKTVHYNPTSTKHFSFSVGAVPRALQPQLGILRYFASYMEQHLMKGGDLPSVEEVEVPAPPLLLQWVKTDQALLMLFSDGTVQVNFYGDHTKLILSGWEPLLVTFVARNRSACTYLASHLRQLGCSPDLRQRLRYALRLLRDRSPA

[31] = system: HL-60; assay: Antiproliferative activity against human HL-60 cells assessed as viable cell signal at maximum growth inhibition incubated for 72 hrs by celltiter-glo assay relative to control; format: functional
[32] = system: BXPC-3; assay: Antiproliferative activity against human BXPC-3 cells assessed as of viable cell signal at minimum maximum cell growth incubated for 72 hrs by celltiter-glo assay relative to control; format: functional
[33] = system: NCI-N87; assay: Antiproliferative activity against human NCI-N87 cells assessed as of viable cell signal at minimum maximum cell growth incubated for 72 hrs by celltiter-glo assay relative to control; format: functional
[34] = system: Raji; assay: Antiproliferative activity against human Raji cells assessed as growth inhibition incubated for 72 hrs by celltiter-glo assay; format: functional
[35] = system: ZR-75-1; assay: Antiproliferative activity against human ZR-75-1 cells assessed as growth inhibition at 10 to 250 nmol/L incubated for 72 hrs by celltiter-glo assay; format: functional, cell-based; conditions: dose 10-250 nmol/L
[36] = system: BT-549; assay: Antiproliferative activity against human BT-549 cells assessed as growth inhibition incubated for 72 hrs by celltiter-glo assay; format: functional
[37] = system: MDA-MB-468; assay: Antiproliferative activity against human MDA-MB-468 cells assessed as growth inhibition incubated for 72 hrs by celltiter-glo assay; format: functional
[38] = system: NCI-H157; assay: Antiproliferative activity against human NCI-H157 cells assessed as viable cell signal at maximum growth inhibition incubated for 72 hrs by celltiter-glo assay relative to control; format: functional
[39] = system: DU-145; assay: Antiproliferative activity against human DU-145 cells assessed as growth inhibition incubated for 72 hrs by celltiter-glo assay; format: functional
[40] = system: RPMI-8226; assay: Antiproliferative activity against human RPMI-8226 cells assessed as of viable cell signal at minimum maximum cell growth incubated for 72 hrs by celltiter-glo assay relative to control; format: functional

C[C@@H](Oc1cc(-n2cnc3ccc(CN4CCN(C)CC4)cc32)sc1C(N)=O)c1ccccc1C(F)(F)F [GSK-461364]
GI50 [1]: 9160 nM | GI50 [2]: 45.2 nM | Emin [3]: 114.1% | Emin [4]: 75% | GI50 [5]: 61.4 nM | Emin [6]: 218% | Emin [7]: 161.5% | Emin [8]: 15.4% | Emin [9]: 179.6% | GI50 [10]: 14 nM | GI50 [11]: 16.6 nM | Emax [12]: 400% | inhibition [13]: 68% | viability at 0.25 µM [14]: 200% | Activity [15]: Dose-Dependent Effect | GI50 [16]: 28.4 nM | Emax [17]: 406% | GI50 [18]: 186 nM | Emin [19]: 84% | Emax [20]: 320% | GI50 [21]: 381 nM | Emin [22]: 133.6% | inhibition [23]: 90% | Emax [24]: 265% | Emax [25]: 223% | Activity [26]: Active | Emin [27]: 158.9% | GI50 [28]: 13.4 nM | GI50 [29]: 44.9 nM | inhibition [30]: 64% | Emax [31]: 191% | Emin [32]: 103.3% | Emin [33]: 321.5% | GI50 [34]: 25.3 nM | Activity [35]: inactive | GI50 [36]: 23.1 nM | GI50 [37]: 6.35 nM | Emax [38]: 847% | GI50 [39]: 24.2 nM | Emin [40]: 34.6%
